Where two headings read alike, the source gives them in different places. Marks after values point to notes of the source that are not given here.
Experiments:
[1] = system: methicillin-resistant Staphylococcus aureus MRSA-2 (clinical isolate); test: MIC broth microdilution, MRSA-2; format: cell-based; conditions: for MIC: read-out: MIC MRSA-2
Method in brief: (§1)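 Growth inhibition is scored visually with OD600 support after 16 to 18 hours at 37° C, the MIC taken as the lowest compound concentration without bacterial growth. Compounds are tested as two-fold dilutions from 0.10 to 100 μM in Luria Broth against ~10^5 log-phase cells per well.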

MRSA BAA-1707 = test: MIC broth microdilution, MRSA BAA-1707; format: cell-based, Staphylococcus aureus; conditions: for MIC MRSA 1707: Table 4
Method in brief: (§2)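 Log-phase bacteria (~10^5 cells per well) were added to eleven two-fold compound dilutions in Luria Broth, covering 0.10 to 100 μM. Growth inhibition was scored per CLSI broth microdilution, supported by OD600 reads. DMSO, serially diluted from 1% v/v, served as negative control.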

[2] = system: methicillin-resistant Staphylococcus epidermidis (MRSE strain ATCC 35984); test: MIC broth microdilution, MRSE 35984; format: cell-based
Method in brief: as §1

[3] = system: vancomycin-resistant Enterococcus faecium (VRE strain ATCC 700221); test: MIC broth microdilution, VRE 700221; format: cell-based
Method in brief: as §1

[4] = system: Acinetobacter baumannii (ATCC 1794); test: MIC broth microdilution, A. baumannii 1794; format: cell-based; conditions: for MIC A. baumannii 1794: in µM
Method in brief: as §1

[5] = system: Pseudomonas aeruginosa (PAO1); test: MIC broth microdilution, PAO1; format: cell-based
Method in brief: as §1

[6] = system: human red blood cells (hRBC); test: Hemolysis of red blood cells; format: cell-based
Method in brief: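 hRBCs (2% suspension) exposed to compounds at 0.2–200 μM (ten-point dose-response) for 1 h at 37 °C; after centrifugation, haemoglobin release read as supernatant OD at 405 nm. DMSO set as 0% and Triton X as 100% haemolysis; HC50 from dose-response curves, three independent experiments.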

[7] = system: methicillin-sensitive Staphylococcus aureus ATCC 29213; test: MIC broth microdilution, S. aureus 29213; format: cell-based
Method in brief: as §2

[8] = system: MRSA-1 (clinical isolate); test: MIC broth microdilution, MRSA-1; format: cell-based, Staphylococcus aureus
Method: (§3) The minimum inhibitory concentration (MIC) for each tested compound was determined by the broth microdilution method as recommended by the Clinical and Laboratory Standards Institute (CLSI). In a 96-well plate, eleven two-fold serial dilutions of each compound were made in a final volume of 100 μL Luria Broth. Each well was inoculated with ˜10^5 bacterial cells at the initial time of incubation, prepared from a fresh log phase culture (OD600 of 0.5 to 1.0 depending on bacterial strain). […] (MIC values were supported by spectrophotometric readings at OD600). DMSO served as our vehicle and negative control in each microdilution MIC assay. DMSO was serially diluted with a top concentration of 1% v/v.
(§4) Each well was inoculated with ˜10^5 bacterial cells at the initial time of incubation, prepared from a fresh log phase culture (OD600 of 0.5 to 1.0 depending on bacterial strain). […] The concentration range tested for each compound during this study was 0.10 to 100 μM. DMSO served as our vehicle and negative control in each microdilution MIC assay. DMSO was serially diluted with a top concentration of 1% v/v. All MIC values were obtained from a minimum of three independent experiments.

[9] = system: SA-129 (clinical isolate); test: MIC broth microdilution, SA-129; format: cell-based, Staphylococcus aureus
Method: as §3, §4

[10] = system: SA-147 (clinical isolate); test: MIC broth microdilution, SA-147; format: cell-based, Staphylococcus aureus
Method: as §3, §4

[11] = system: SA-138 (clinical isolate); test: MIC broth microdilution, SA-138; format: cell-based, Staphylococcus aureus
Method: as §3, §4

[12] = system: SA-156 (clinical isolate); test: MIC broth microdilution, SA-156; format: cell-based, Staphylococcus aureus
Method: as §3, §4

MRSA BAA-44 = test: MIC broth microdilution, MRSA BAA-44; format: cell-based, Staphylococcus aureus
Method: as §3, §4

[13] = Table 1B, read-out: MIC MRSA BAA-1707
[14] = Table 2A, read-out: MRSA BAA-1707 MIC
[15] = Table 3, read-out: MIC MRSA BAA-1707
[16] = Table 4, concentration required to lyse 50% of red blood cells

## CCCCCCCCCCCCCCCC[N+](C)(C)Cc1ccccc1.[Cl-] [BAC-16, reference compound]
[1]; Table 4
  MIC MRSA-2: 1.56 µM
MRSA BAA-1707
  MIC MRSA 1707: 1.56 µM
[2]; Table 4
  MIC MRSE 35984: 1.56 µM
[3]; Table 4
  MIC VRE 700221: 3.13 µM
[4]; Table 4
  MIC A. bau. 1794: 6.25 µM
[5]; Table 4
  MIC PAO1: >100 µM
[6]
  RBC HC50: 21.8 µM

## CCCCCCCCCCCCCCCCn1cc[n+](C)c1C.[I-] [Compound 8]
[1]
  MRSA-2 MIC: 1.17^a μM
MRSA BAA-1707; [13]
  MIC: 0.39 µM
MRSA BAA-1707; [14]
  MIC: 0.39 µM
MRSA BAA-1707; [15]
  MIC: 0.39 µM
MRSA BAA-1707
  MIC MRSA 1707: 0.39 µM
[2]
  MIC MRSE 35984: 1.17a micromolar
  MIC S. epidermidis MRSE 35984: 1.17^a
  MRSE 35984 MIC: 1.17^a μM
[3]
  MIC E. faecium VRE 700221: 2.35^a
  MIC VRE 700221: 2.35a micromolar
  VRE MIC: 2.35^a μM
[4]
  MIC A. bau. 1794: 12.5 µM
  MIC A. baumannii 1794: 12.5
[7]; Table 1B
  MIC: 1.56 µM
[7]; Table 3
  MIC: 1.56 µM
[8]; Table 1B
  MIC: 1.56 µM
[8]; Table 3
  MIC: 1.56 µM
[9]; Table 1B
  MIC: 1.56 µM
[9]; Table 3
  MIC: 1.56 µM
[10]; Table 1B
  MIC SA-147: 1.17^a μM
[10]; Table 3
  MIC SA-147: 1.17^a μM
[11]; Table 1B
  MIC SA-138: 2.35^a μM
[11]; Table 3
  MIC SA-138: 2.35^a μM
[12]; Table 1B
  MIC: 1.56 µM
[12]; Table 3
  MIC: 1.56 µM
MRSA BAA-44; Table 1B
  MIC: 1.56 µM
MRSA BAA-44; Table 3
  MIC: 1.56 µM
[6]; Table 1A
  HC50: 13 µM
[6]; [16]
  RBC HC50: 13.0 µM

## CCCCCCCCCCCCCCCCn1cc[n+](CCO)c1C.[Br-] [Compound 11]
[1]; Table 1A
  MIC MRSA-2: 1.56 µM
[1]; Table 1B
  MIC: 0.78 µM
[1]; Table 2A
  MRSA-2 MIC: 1.56 µM
[1]; Table 3
  MIC MRSA-2: 1.17^a μM
[1]; Table 4
  MIC MRSA-2: 1.17a micromolar
MRSA BAA-1707; [13]
  MIC: 0.39 µM
MRSA BAA-1707; [14]
  MIC: 0.39 µM
MRSA BAA-1707; [15]
  MIC: 0.39 µM
MRSA BAA-1707
  MIC MRSA 1707: 0.39 µM
[2]; Table 1A
  MIC S. epidermidis MRSE 35984: 0.59^a
[2]; Table 2A
  MRSE 35984 MIC: 0.59^a μM
[2]; Table 4
  MIC MRSE 35984: 0.59a micromolar
[3]; Table 1A
  MIC E. faecium VRE 700221: 1.56 µM
[3]; Table 2A
  VRE MIC: 1.56 µM
[3]; Table 4
  MIC VRE 700221: 1.56 µM
[4]; Table 1A
  MIC A. baumannii 1794: 6.25
[4]; Table 4
  MIC A. bau. 1794: 6.25 µM
[5]; Table 1A
  MIC PAO1: > 100 µM
[5]; Table 4
  MIC PAO1: >100 µM
[7]; Table 1B
  MIC S. aureus 29213: 1.17^a μM
[7]; Table 3
  MIC S. aureus 29213: 1.17^a μM
[8]; Table 1B
  MIC MRSA-1: 1.17^a μM
[8]; Table 3
  MIC MRSA-1: 1.17^a μM
[9]; Table 1B
  MIC: 1.56 µM
[9]; Table 3
  MIC: 1.56 µM
[10]; Table 1B
  MIC SA-147: 1.17^a μM
[10]; Table 3
  MIC SA-147: 1.17^a μM
[11]; Table 1B
  MIC: 1.56 µM
[11]; Table 3
  MIC: 1.56 µM
[12]; Table 1B
  MIC: 1.56 µM
[12]; Table 3
  MIC: 1.56 µM
MRSA BAA-44; Table 1B
  MIC: 1.56 µM
MRSA BAA-44; Table 3
  MIC: 1.56 µM
[6]; Table 1A
  HC50: 6.8 µM
[6]; [16]
  RBC HC50: 6.8 µM

## CCCCCCCCCCCCCCCCn1cc[n+](Cc2cccc(F)c2)c1C.[Br-] [Compound 18]
[1]; Table 1A
  MIC MRSA-2: 2.35^a
[1]; Table 1B
  MIC MRSA-2: 2.35^a μM
[1]; Table 2A
  MRSA-2 MIC: 2.35^a μM
[1]; Table 3
  MIC MRSA-2: 2.35^a μM
[1]; Table 4
  MIC MRSA-2: 2.35a micromolar
MRSA BAA-1707; [13]
  MIC: 1.56 µM
MRSA BAA-1707; [14]
  MIC: 1.56 µM
MRSA BAA-1707; [15]
  MIC: 1.56 µM
MRSA BAA-1707
  MIC MRSA 1707: 1.56 µM
[2]; Table 1A
  MIC S. epidermidis MRSE 35984: 1.17^a
[2]; Table 2A
  MRSE 35984 MIC: 1.17^a μM
[2]; Table 4
  MIC MRSE 35984: 1.17a micromolar
[3]; Table 1A
  MIC E. faecium VRE 700221: 1.56 µM
[3]; Table 2A
  VRE MIC: 1.56 µM
[3]; Table 4
  MIC VRE 700221: 1.56 µM
[4]; Table 1A
  MIC A. baumannii 1794: 25
[4]; Table 4
  MIC A. bau. 1794: 25 µM
[5]; Table 1A
  MIC PAO1: > 100 µM
[5]; Table 4
  MIC PAO1: >100 µM
[7]; Table 1B
  MIC S. aureus 29213: 4.69^a μM
[7]; Table 3
  MIC S. aureus 29213: 4.69^a μM
[8]; Table 1B
  MIC: 3.13 µM
[8]; Table 3
  MIC: 3.13 µM
[9]; Table 1B
  MIC: 3.13 µM
[9]; Table 3
  MIC: 3.13 µM
[10]; Table 1B
  MIC SA-147: 2.35^a μM
[10]; Table 3
  MIC SA-147: 2.35^a μM
[11]; Table 1B
  MIC: 3.13 µM
[11]; Table 3
  MIC: 3.13 µM
[12]; Table 1B
  MIC: 3.13 µM
[12]; Table 3
  MIC: 3.13 µM
MRSA BAA-44; Table 1B
  MIC MRSA BAA-44: 2.35^a μM
MRSA BAA-44; Table 3
  MIC MRSA BAA-44: 2.35^a μM
[6]; Table 1A
  HC50: 16.7 µM
[6]; [16]
  RBC HC50: 16.7 µM

## CCCCCCCCCCCC[N+](C)(C)CC[N+](C)(C)CC[N+](C)(C)CCCCCCCCCCCC [QAC-10, reference compound]
[1]; Table 1
  MIC: 3.13 µM
[1]; Table 1A
  MIC MRSA-2: 3.13 µM
[1]; Table 1B
  MIC MRSA-2: 2.35^a μM
[1]; Table 2A
  MRSA-2 MIC: 2.35^a μM
[1]; Table 3
  MIC: 3.13 µM
[1]; Table 4
  MIC MRSA-2: 3.13 µM
[2]; Table 1
  MIC MRSE 35984: 2.35^a μM
[2]; Table 1A
  MIC S. epidermidis MRSE 35984: 2.35^a
[2]; Table 2
  MRSE 35984 MIC: 2.35^a μM
[2]; Table 2A
  MRSE 35984 MIC: 2.35^a μM
[2]; Table 4
  MIC MRSE 35984: 2.35a micromolar
[3]; Table 1
  MIC VRE 700221: 2.35^a μM
[3]; Table 1A
  MIC E. faecium VRE 700221: 2.35^a
[3]; Table 2
  VRE 700221 MIC: 2.35^a μM
[3]; Table 4
  MIC VRE 700221: 2.35a micromolar
[4]
  MIC against multidrug-resistant A. baumannii: 6.25 µM
[4]; Table 1, read-out: MIC A. baumannii 1794
  MIC: 6.25 µM
[4]; Table 1A
  MIC A. baumannii 1794: 6.25
[4]; Table 4
  MIC A. bau. 1794: 6.25 µM
[5]
  MIC against P. aeruginosa: 9.38 µM
[5]; Table 1
  MIC PAO1: 9.38^a μM
[5]; Table 1A
  MIC PAO1: 9.38^a
[5]; Table 4
  MIC PAO1: 9.38a micromolar
[7]; Table 1B
  MIC S. aureus 29213: 4.69^a μM
[7]; Table 3
  MIC S. aureus 29213: 4.69^a μM
[8]; Table 1B
  MIC: 3.13 µM
[8]; Table 3
  MIC MRSA-1: 4.69^a μM
[9]; Table 1B
  MIC SA-129: 2.35^a μM
[9]; Table 3
  MIC SA-129: 2.35^a μM
[10]; Table 1B
  MIC: 3.13 µM
[10]; Table 3
  MIC: 3.13 µM
[11]; Table 1B
  MIC SA-138: 2.35^a μM
[11]; Table 3
  MIC SA-138: 2.35^a μM
[12]; Table 1B
  MIC SA-156: 2.35^a μM
[12]; Table 3
  MIC SA-156: 2.35^a μM
MRSA BAA-44; Table 1B
  MIC MRSA BAA-44: 2.35^a μM
MRSA BAA-44; Table 3
  MIC MRSA BAA-44: 2.35^a μM
[6]
  HC50: 7.92 µM
  hemolytic activity: potent hemolytic activities
